Experimental data published in US4440933A, “Process for preparing 1,2,5-thiadiazoles” (Bristol-Myers Company, priority 1983, dated 1984).
Where two headings read alike, the source gives them in different places.

Assays:
[1] = tested on: gastric acid secretion; assay: Gastric antisecretory activity in the gastric fistula rat; assay type: in vivo, rat (male Long Evans); details: sc, read-out: ED50 sc
[2] = tested on: peptic ulcer disease; details: clinical evaluation, Gray et al., Lancet, 1, 8001 (1977); cited from earlier work
[3] = target: T1, histamine H2-receptor (Cavia porcellus, UniProt P47747); details: Black et al., Nature, 236, 385 (1972); cited from earlier work
T1 construct: The spontaneously beating right atrium was dissected free from other tissues; from tissue; host or cells: isolated spontaneously beating right atrium of male Hartley strain guinea pigs
T1 sequence (P47747 whole entry): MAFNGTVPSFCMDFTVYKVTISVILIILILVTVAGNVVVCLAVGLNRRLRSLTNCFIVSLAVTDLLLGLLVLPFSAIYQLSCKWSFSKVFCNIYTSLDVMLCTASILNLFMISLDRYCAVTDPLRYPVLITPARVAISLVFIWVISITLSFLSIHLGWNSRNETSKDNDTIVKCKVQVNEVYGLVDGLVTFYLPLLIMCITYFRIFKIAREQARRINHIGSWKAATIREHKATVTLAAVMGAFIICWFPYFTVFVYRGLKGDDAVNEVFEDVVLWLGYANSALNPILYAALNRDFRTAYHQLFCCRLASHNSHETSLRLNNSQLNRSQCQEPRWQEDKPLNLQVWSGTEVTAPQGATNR

For `CN/C(=N/CCSCc1nc[nH]c1C)NC#N` [cimetidine, reference compound], the ED50 ([1]; Rattus norvegicus) is given as 3.48 µmol/kg and the “therapeutic effect in treatment of peptic ulcer disease” value [2] is given as “effective therapeutic agent in the treatment of peptic ulcer disease”.
`CN(C)Cc1ccc(CSCCNc2nsnc2N)o1` [Example 10, 3-amino-4-{2-[(5-dimethylaminomethyl-2-furyl)-methylthio]ethylamino}-1,2,5-thiadiazole] gave an ED50 ([1]; gastric fistula rat) of 0.77 µmol/kg.
`Nc1nsnc1NCCCOc1cccc(CN2CCCCC2)c1` [Example 3, 3-Amino-4-[3-(3-piperidinomethylphenoxy)propylamino]-1,2,5-thiadiazole] showed an ED50 ([1]; gastric fistula rat) of 0.094 µmol/kg.
Work on `Cc1cc(CSCCNc2nsnc2N)sc1CN(C)C` [Example 11, 3-Amino-4-{2-[(5-dimethylaminomethyl-4-methyl-2-thienyl)methylthio]ethylamino}-1,2,5-thiadiazole] yielded an ED50 ([1]; gastric fistula rat) of about 0.5 µmol/kg.
`Nc1nsnc1NCCCOc1cccc(CN2CCCC2)c1` [Example 4, 3-Amino-4-[3-(3-pyrrolidinomethylphenoxy)propylamino]-1,2,5-thiadiazole] gave an ED50 ([1]; gastric fistula rat) of 0.18 µmol/kg.
In the case of `CNC(=S)NCCCCc1cnc[nH]1` [burimamide], the “type of antagonism at histamine H2-receptors” value [3] is listed as “competitive antagonist”.
